Data on 22 molecules can be found in patent US20230072683A1, “PYRIDO-PYRIMIDIN DERIVATIVES AND PHARMACEUTICAL COMPOSITION, FOR USE IN PREVENTING OR TREATING PI3 KINASE RELATED DISEASES, COMPRISING SAME AS ACTIVE INGREDIENT” (BORYUNG PHARMACEUTICAL CO., LTD, priority 2019, published 2023).

The target of assay [1] is PI3K-δ (PI3K(p1108/p857) (h)) (Homo sapiens, UniProt O00329). Nature of the assay: Evaluation of inhibitory activity against PI3K-δ (HTRF kinase assay). Format: biochemical. As to conditions: compound at 0.1 μM; read-out: EXP_VALUE(% Inhibition) PI3K-δ 0.1 μM. In a few lines: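 HTRF read-out (665/620 nm ratio ×10000) used Eu-labelled anti-GST, GST-tagged GRP1 PH domain and streptavidin-allophycocyanin after EDTA/PIP3 stop.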
Sequence of PI3K-δ (PI3K(p1108/p857) (h)) (O00329 whole entry, the tested form may be a part): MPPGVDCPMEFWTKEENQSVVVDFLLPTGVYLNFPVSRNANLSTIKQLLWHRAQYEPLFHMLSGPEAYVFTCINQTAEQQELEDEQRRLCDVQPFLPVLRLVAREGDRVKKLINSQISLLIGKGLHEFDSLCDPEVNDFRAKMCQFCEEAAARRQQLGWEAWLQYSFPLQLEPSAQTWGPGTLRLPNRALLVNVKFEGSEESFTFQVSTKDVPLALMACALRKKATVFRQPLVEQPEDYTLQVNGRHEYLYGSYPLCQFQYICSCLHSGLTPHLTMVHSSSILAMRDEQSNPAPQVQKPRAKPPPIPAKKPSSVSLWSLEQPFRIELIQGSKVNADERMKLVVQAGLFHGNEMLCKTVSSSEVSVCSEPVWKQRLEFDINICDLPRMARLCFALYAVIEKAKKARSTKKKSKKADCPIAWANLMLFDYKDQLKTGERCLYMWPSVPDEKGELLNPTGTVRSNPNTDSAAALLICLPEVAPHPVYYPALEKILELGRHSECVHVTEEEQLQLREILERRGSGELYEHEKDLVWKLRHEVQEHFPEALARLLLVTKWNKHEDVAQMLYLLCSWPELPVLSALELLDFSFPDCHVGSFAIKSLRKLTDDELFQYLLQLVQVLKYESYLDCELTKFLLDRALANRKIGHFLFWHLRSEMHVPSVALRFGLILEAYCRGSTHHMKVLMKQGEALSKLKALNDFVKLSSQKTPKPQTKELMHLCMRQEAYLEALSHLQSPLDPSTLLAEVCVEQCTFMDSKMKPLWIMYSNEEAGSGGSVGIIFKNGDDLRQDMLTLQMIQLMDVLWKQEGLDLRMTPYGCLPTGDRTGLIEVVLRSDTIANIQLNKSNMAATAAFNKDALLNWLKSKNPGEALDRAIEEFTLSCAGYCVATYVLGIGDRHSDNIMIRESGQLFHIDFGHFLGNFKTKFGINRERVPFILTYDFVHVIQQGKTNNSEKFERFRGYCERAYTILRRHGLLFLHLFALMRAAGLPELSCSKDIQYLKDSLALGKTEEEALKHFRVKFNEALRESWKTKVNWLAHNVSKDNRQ
Sequence of PI3K-δ (PI3K(p1108/p857) (h)) (P27986 whole entry partner, the tested form may be a part): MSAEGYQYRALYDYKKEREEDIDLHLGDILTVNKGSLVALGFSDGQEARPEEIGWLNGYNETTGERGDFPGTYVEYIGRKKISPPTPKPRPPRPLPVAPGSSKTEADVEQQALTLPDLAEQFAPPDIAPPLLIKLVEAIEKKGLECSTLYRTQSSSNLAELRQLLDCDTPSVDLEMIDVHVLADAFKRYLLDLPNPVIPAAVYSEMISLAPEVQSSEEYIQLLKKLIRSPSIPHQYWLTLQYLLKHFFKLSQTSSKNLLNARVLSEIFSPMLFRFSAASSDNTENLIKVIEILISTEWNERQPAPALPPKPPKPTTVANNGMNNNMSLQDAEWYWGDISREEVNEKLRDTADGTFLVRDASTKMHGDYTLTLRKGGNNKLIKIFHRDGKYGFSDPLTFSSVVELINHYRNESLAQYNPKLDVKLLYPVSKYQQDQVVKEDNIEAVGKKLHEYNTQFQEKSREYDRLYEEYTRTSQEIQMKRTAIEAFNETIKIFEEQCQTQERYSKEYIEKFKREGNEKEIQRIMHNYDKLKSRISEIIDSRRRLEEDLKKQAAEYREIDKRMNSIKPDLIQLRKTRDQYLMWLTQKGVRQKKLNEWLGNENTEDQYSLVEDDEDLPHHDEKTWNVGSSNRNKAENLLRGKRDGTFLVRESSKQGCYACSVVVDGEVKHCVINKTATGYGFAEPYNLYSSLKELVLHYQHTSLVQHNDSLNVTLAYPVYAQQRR
A general note: In TR-FRET formats the signal depends on donor and acceptor labels being close together.

Assay [2] addresses DNA-PK(h) (Homo sapiens, UniProt P78527). Nature of the assay: Evaluation of inhibitory activity against DNA-PK (HTRF kinase assay, GST-cMyc-p53 substrate). Conditions: compound at 0.1 μM; read-out: EXP_VALUE(% Inhibition) DNA-PK(h) 0.1 μM. Format: biochemical. The procedure, abridged:
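Human DNA-PK with 50 μM GST-cMyc-p53 substrate; reaction started with Mg/ATP, run 30 min at room temperature, stopped with EDTA. Phospho-Ser15 p53 detected by HTRF (Eu anti-phospho-Ser15, d2 anti-GST), signal = 10000×(Em 665/Em 620).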

By inhibition is commonly meant the drop in the measured response relative to a control, in per cent. For the molecule `CC(C)[S@@](=N)(=O)c1cccc2c(Cl)c([C@H](C)Nc3ncnc4[nH]ccc(=O)c34)n(-c3ccccc3)c(=O)c12` [Example 410, 4-(((S)-1-(4-chloro-1-oxo-2-phenyl-8-((R)-propan-2-ylsulfonimidoyl)-1,2-dihydroisoquinolin-3-yl)ethyl)amino)pyrido[2,3-d]pyrimidin-5(8H)-one], the inhibition at 0.1 µM turned out to be 14% in assay [1] and 23% in assay [2].

Consider `CC(C)[S@](=N)(=O)c1cccc2c(Cl)c([C@H](C)Nc3ncnc4[nH]ccc(=O)c34)n(-c3ccccc3)c(=O)c12` [Example 411, 4-(((S)-1-(4-chloro-1-oxo-2-phenyl-8-((S)-propan-2-ylsulfonimidoyl)-1,2-dihydroisoquinolin-3-yl)ethyl)amino)pyrido[2,3-d]pyrimidin-5(8H)-one], for which the inhibition at 0.1 µM in assay [1] came out at 4%; in assay [2], 37%.

On to `C[C@H](Nc1ncnc2[nH]ccc(=O)c12)c1c(Cl)c2cccc(Sc3ccccn3)c2c(=O)n1-c1ccccc1` [Example 412, (S)-4-((1-(4-chloro-1-oxo-2-phenyl-8-(pyridin-2-ylthio)-1,2-dihydroisoquinolin-3-yl)ethyl)amino)pyrido[2,3-d]pyrimidin-5(8H)-one], for which the inhibition at 0.1 µM is 29% in assay [1] and 15% in assay [2].

Turning to `C[C@H](Nc1ncnc2[nH]ccc(=O)c12)c1c(Cl)c2cccc([S+]([O-])c3ccccn3)c2c(=O)n1-c1ccccc1` (stereo partly drawn) [Example 413, 4-(((1S)-1-(4-chloro-1-oxo-2-phenyl-8-(pyridin-2-ylsulfinyl)-1,2-dihydroisoquinolin-3-yl)ethyl)amino)pyrido[2,3-d]pyrimidin-5(8H)-one], the inhibition at 0.1 µM in assay [1] worked out at 16%; in assay [2], 30%.

As for `C[C@H](Nc1ncnc2[nH]ccc(=O)c12)c1c(Cl)c2cccc(S(=O)(=O)c3ccccn3)c2c(=O)n1-c1ccccc1` [Example 414, (S)-4-((1-(4-chloro-1-oxo-2-phenyl-8-(pyridin-2-ylsulfonyl)-1,2-dihydroisoquinolin-3-yl)ethyl)amino)pyrido[2,3-d]pyrimidin-5(8H)-one], the inhibition at 0.1 µM came out at 44% in assay [1] and 32% in assay [2].

Take `CC(C)Sc1cccc2c(Cl)c([C@H](C)Nc3ncnc4[nH]ccc(=O)c34)n(-c3ccccc3)c(=O)c12` [Example 415, (S)-4-((1-(4-chloro-8-(isopropylthio)-1-oxo-2-phenyl-1,2-dihydroisoquinolin-3-yl)ethyl)amino)pyrido[2,3-d]pyrimidin-5(8H)-one]: the values for the inhibition at 0.1 µM in assay [1] and in assay [2] were 0% and 23%, respectively.

For `CC(C)S(=O)(=O)c1cccc2c(Cl)c([C@H](C)Nc3ncnc4[nH]ccc(=O)c34)n(-c3ccccc3)c(=O)c12` [Example 416, (S)-4-((1-(4-chloro-8-(isopropylsulfonyl)-1-oxo-2-phenyl-1,2-dihydroisoquinolin-3-yl)ethyl)amino)pyrido[2,3-d]pyrimidin-5(8H)-one], the inhibition at 0.1 µM is 13% in assay [1] and 52% in assay [2].

As for `C[C@H](Nc1ncnc2[nH]ccc(=O)c12)c1c(Cl)c2cccc(Sc3nccs3)c2c(=O)n1-c1ccccc1` [Example 417, (S)-4-((1-(4-chloro-1-oxo-2-phenyl-8-(thiazol-2-ylthio)-1,2-dihydroisoquinolin-3-yl)ethyl)amino)pyrido[2,3-d]pyrimidin-5(8H)-one], the inhibition at 0.1 µM in assay [1] came to 26%; in assay [2], 48%.

As to `C[C@H](Nc1ncnc2[nH]ccc(=O)c12)c1c(Cl)c2cccc(SC3COC3)c2c(=O)n1-c1ccccc1` [Example 418, (S)-4-((1-(4-chloro-8-(oxetan-3-ylthio)-1-oxo-2-phenyl-1,2-dihydroisoquinolin-3-yl)ethyl)amino)pyrido[2,3-d]pyrimidin-5(8H)-one], the figures for the inhibition at 0.1 µM in assay [1] and in assay [2] were 1% and 29%, respectively.

As for `C[C@H](Nc1ncnc2[nH]ccc(=O)c12)c1c(Cl)c2cccc([S+]([O-])c3ncccn3)c2c(=O)n1-c1ccccc1` (stereo partly drawn) [Example 419, 4-(((1S)-1-(4-chloro-1-oxo-2-phenyl-8-(pyrimidin-2-ylsulfinyl)-1,2-dihydroisoquinolin-3-yl)ethyl)amino)pyrido[2,3-d]pyrimidin-5(8H)-one], the inhibition at 0.1 µM was determined as 7% in assay [1] and 47% in assay [2].

Regarding `C[C@H](Nc1ncnc2[nH]ccc(=O)c12)c1c(Cl)c2cccc(S(=O)(=O)c3ncccn3)c2c(=O)n1-c1ccccc1` [Example 420, (S)-4-((1-(4-chloro-1-oxo-2-phenyl-8-(pyrimidin-2-ylsulfonyl)-1,2-dihydroisoquinolin-3-yl)ethyl)amino)pyrido[2,3-d]pyrimidin-5(8H)-one], the figures for the inhibition at 0.1 µM in assay [1] and in assay [2] were 37% and 36%, respectively.

With `C[C@H](Nc1ncnc2[nH]ccc(=O)c12)c1c(Cl)c2cccc([S@](=N)(=O)c3ncccn3)c2c(=O)n1-c1ccccc1` [Example 421, 4-(((S)-1-(4-chloro-1-oxo-2-phenyl-8-((S)-pyrimidine-2-sulfonimidoyl)-1,2-dihydroisoquinolin-3-yl)ethyl)amino)pyrido[2,3-d]pyrimidin-5(8H)-one], the inhibition at 0.1 µM in assay [1] was 9%; in assay [2], 7%.

For `C[C@H](Nc1ncnc2[nH]ccc(=O)c12)c1c(Cl)c2cccc([S@@](=N)(=O)c3ncccn3)c2c(=O)n1-c1ccccc1` [Example 422, 4-(((S)-1-(4-chloro-1-oxo-2-phenyl-8-((R)-pyrimidine-2-sulfonimidoyl)-1,2-dihydroisoquinolin-3-yl)ethyl)amino)pyrido[2,3-d]pyrimidin-5(8H)-one], the inhibition at 0.1 µM turned out to be 9% in assay [1] and 18% in assay [2].

On to `C[C@H](Nc1ncnc2[nH]ccc(=O)c12)c1c(Cl)c2cccc(Sc3ncccn3)c2c(=O)n1-c1ccccc1` [Example 423, (S)-4-((1-(4-chloro-1-oxo-2-phenyl-8-(pyrimidin-2-ylthio)-1,2-dihydroisoquinolin-3-yl)ethyl)amino)pyrido[2,3-d]pyrimidin-5(8H)-one], for which the inhibition at 0.1 µM was 20% in assay [1] and 22% in assay [2].

Turning to `C[C@H](Nc1ncnc2[nH]ccc(=O)c12)c1c(Cl)c2cccc(-c3cnc(OC(C)(C)C)nc3)c2c(=O)n1-c1ccccc1` [Example 424, (S)-4-((1-(8-(2-(tert-butoxy)pyrimidin-5-yl)-4-chloro-1-oxo-2-phenyl-1,2-dihydroisoquinolin-3-yl)ethyl)amino)pyrido[2,3-d]pyrimidin-5(8H)-one], the values for the inhibition at 0.1 µM in assay [1] and in assay [2] were 38% and 56%, respectively.

Turning to `C[C@H](Nc1ncnc2[nH]ccc(=O)c12)c1c(Cl)c2cccc(S(C)(=N)=O)c2c(=O)n1-c1ccccc1` (stereo partly drawn) [Example 425, 4-(((1S)-1-(4-chloro-8-(S-methylsulfonimidoyl)-1-oxo-2-phenyl-1,2-dihydroisoquinolin-3-yl)ethyl)amino)pyrido[2,3-d]pyrimidin-5(8H)-one], the inhibition at 0.1 µM in assay [1] is 86%; in assay [2], 16%.

As to `C[C@H](Nc1ncnc2[nH]ccc(=O)c12)c1c(Cl)c2cccc(SC(C)(C)C)c2c(=O)n1-c1ccccc1` [Example 426, (S)-4-((1-(8-(tert-butylthio)-4-chloro-1-oxo-2-phenyl-1,2-dihydroisoquinolin-3-yl)ethyl)amino)pyrido[2,3-d]pyrimidin-5(8H)-one], the results for the inhibition at 0.1 µM in assay [1] and in assay [2] were 12% and 8%, respectively.

As to `C[C@H](Nc1ncnc2[nH]ccc(=O)c12)c1c(Cl)c2cccc(S)c2c(=O)n1-c1ccccc1` [Example 427, (S)-4-((1-(4-chloro-8-mercapto-1-oxo-2-phenyl-1,2-dihydroisoquinolin-3-yl)ethyl)amino)pyrido[2,3-d]pyrimidin-5(8H)-one], the inhibition at 0.1 µM in assay [1] turned out to be 38%; in assay [2] it was 7%.

In the case of `C[C@H](Nc1ncnc2[nH]ccc(=O)c12)c1c(Cl)c2cccc(Oc3ccncc3)c2c(=O)n1-c1ccccc1` [Example 428, (S)-4-((1-(4-chloro-1-oxo-2-phenyl-8-(pyridin-4-yloxy)-1,2-dihydroisoquinolin-3-yl)ethyl)amino)pyrido[2,3-d]pyrimidin-5(8H)-one], the values for the inhibition at 0.1 µM in assay [1] and in assay [2] were 86% and 13%, respectively.

`C[C@H](Nc1ncnc2[nH]ccc(=O)c12)c1c(Cl)c2cccc(OCc3ccncc3)c2c(=O)n1-c1ccccc1` [Example 429, (S)-4-((1-(4-chloro-1-oxo-2-phenyl-8-(pyridin-4-ylmethoxy)-1,2-dihydroisoquinolin-3-yl)ethyl)amino)pyrido[2,3-d]pyrimidin-5(8H)-one]: the inhibition at 0.1 µM in assay [1] was 47%; in assay [2], 63%.

Take `C[C@H](Nc1ncnc2[nH]ccc(=O)c12)c1c(Cl)c2cccc(OCc3ccccn3)c2c(=O)n1-c1ccccc1` [Example 430, (S)-4-((1-(4-chloro-1-oxo-2-phenyl-8-(pyridin-2-ylmethoxy)-1,2-dihydroisoquinolin-3-yl)ethyl)amino)pyrido[2,3-d]pyrimidin-5(8H)-one]: the values for the inhibition at 0.1 µM in assay [1] and in assay [2] were 44% and 68%, respectively.

Consider `C[C@H](Nc1ncnc2[nH]ccc(=O)c12)c1c(Cl)c2cccc([S+]([O-])C3COC3)c2c(=O)n1-c1ccccc1` (stereo partly drawn) [Example 431, 4-(((1S)-1-(4-chloro-8-(oxetan-3-ylsulfinyl)-1-oxo-2-phenyl-1,2-dihydroisoquinolin-3-yl)ethyl)amino)pyrido[2,3-d]pyrimidin-5(8H)-one], for which the results for the inhibition at 0.1 µM in assay [1] and in assay [2] were 32% and 57%, respectively.
